Results as given in US11702422B2, “Imidazopyridazines as modulators of IL-17” (Janssen Pharmaceutica NV, priority 2020, dated 2023).

What was measured:
[1] = molecular target: IL-17A(FLAG-Tagged): IL-17RA(His-Tagged) (Homo sapiens, UniProt Q16552, K93Q); test: IL-17A(FLAG-Tagged): IL-17RA(His-Tagged) Binding Disruption Eu-HTRF Assay; conditions: IL-17A/IL-17RA binding disruption, simple average if tested more than once
How it was run: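 IC50 comes from a one-site competition fit of the HTRF 665/620 nm ratio. Compound dilutions (2-fold, 22 points) were held 1 h rt with FLAG-tagged IL-17A dimer, then His-tagged IL-17RA plus Eu-cryptate anti-FLAG and D2 anti-His antibodies were added for 2 h rt.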

[2] = test system: IL-17A-induced G-CSF production in human normal keratinocyte (NHK); test: NHK Assay: IL-17A-induced G-CSF production in human normal keratinocytes; format: cell-based; conditions: 24 h, adult normal human keratinocytes, IL-17A 5 ng/mL, simple average if tested more than once
How it was run: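 Titrated compound plus recombinant human IL-17A (pre-incubated 1 h, rt) were applied to adult human keratinocytes at 5 ng/mL cytokine, 0.2% DMSO. Cultures ran 24 h at 37° C, and supernatant G-CSF was measured by HTRF to derive IC50.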

Chain of UniProt Q16552 (Q16552 with tags, fused parts or gaps K93Q): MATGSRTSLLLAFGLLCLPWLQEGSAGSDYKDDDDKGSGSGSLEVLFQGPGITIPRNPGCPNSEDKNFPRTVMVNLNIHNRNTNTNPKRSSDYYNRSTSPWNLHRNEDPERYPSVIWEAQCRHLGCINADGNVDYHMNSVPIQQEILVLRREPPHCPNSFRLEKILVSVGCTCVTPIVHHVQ

CC(C)(C)[C@@H](O)C(=O)NC(c1cnn2cc([C@@H](NC(=O)c3cnn(CC4CC4)n3)C3CCC(F)(F)CC3)nc2c1)C1CC1 (single isomer, unassigned) [Example 29, N—((S)-(7-((R*)-Cyclopropyl((R)-2-hydroxy-3,3-dimethylbutanamido)methyl)imidazo[1,2-b]pyridazin-2-yl)(4,4-difluorocyclohexyl)methyl)-2-(cyclopropylmethyl)-2H-1,2,3-triazole-4-carboxamide]
IC50 [1]: 46 nM | IC50 ([2]; Homo sapiens, Keratinocyte): 370 nM

Cc1c(C(=O)N[C@H](c2cn3ncc(C(NC(=O)CC4CC(F)(F)C4)C4CC4)cc3n2)C2CCC(F)(F)CC2)cnn1CCC(F)(F)F (single isomer, unassigned) [Example 51, N—((S)-(7-((S*)-Cyclopropyl(2-(3,3-difluorocyclobutyl)acetamido)methyl)imidazo[1,2-b]pyridazin-2-yl)(4,4-difluorocyclohexyl)methyl)-5-methyl-1-(3,3,3-trifluoropropyl)-1H-pyrazole-4-carboxamide]
IC50 [1]: 12000 nM | IC50 [2]: ~18000 nM

Cc1c(C(=O)N[C@H](c2cn3ncc(C(NC(=O)CC4CC(F)(F)C4)C4CC4)cc3n2)C2CCC(F)(F)CC2)cnn1CCC(F)(F)F (single isomer, unassigned) [Example 52, N—((S)-(7-((R*)-Cyclopropyl(2-(3,3-difluorocyclobutyl)acetamido)methyl)imidazo[1,2-b]pyridazin-2-yl)(4,4-difluorocyclohexyl)methyl)-5-methyl-1-(3,3,3-trifluoropropyl)-1H-pyrazole-4-carboxamide]
IC50 [1]: 280 nM | IC50 [2]: 670 nM

Cc1c(C(=O)N[C@H](c2cn3ncc(C(NC(=O)CCC(F)(F)F)C4CC4)cc3n2)C2CCC(F)(F)CC2)cnn1CCC(F)(F)F (single isomer, unassigned) [Example 53, N—((S)-(7-((S*)-Cyclopropyl(4,4,4-trifluorobutanamido)methyl)imidazo[1,2-b]pyridazin-2-yl)(4,4-difluorocyclohexyl)methyl)-5-methyl-1-(3,3,3-trifluoropropyl)-1H-pyrazole-4-carboxamide]
IC50 [1]: 11000 nM | IC50 [2]: > 20000 nM

Cc1c(C(=O)N[C@H](c2cn3ncc(C(NC(=O)CCC(F)(F)F)C4CC4)cc3n2)C2CCC(F)(F)CC2)cnn1CCC(F)(F)F (single isomer, unassigned) [Example 54, N—((S)-(7-((R*)-Cyclopropyl(4,4,4-trifluorobutanamido)methyl)imidazo[1,2-b]pyridazin-2-yl)(4,4-difluorocyclohexyl)methyl)-5-methyl-1-(3,3,3-trifluoropropyl)-1H-pyrazole-4-carboxamide]
IC50 [1]: 320 nM | IC50 [2]: 710 nM

O=C(CCC(F)(F)F)NC(c1cnn2cc([C@@H](NC(=O)c3cnnn3CCC(F)(F)F)C3CCC(F)(F)CC3)nc2c1)C1CC1 (single isomer, unassigned) [Example 71, N—((S)-(7-((R*)-Cyclopropyl(4,4,4-trifluorobutanamido)methyl)imidazo[1,2-b]pyridazin-2-yl)(4,4-difluorocyclohexyl)methyl)-1-(3,3,3-trifluoropropyl)-1H-1,2,3-triazole-5-carboxamide]
IC50 [1]: 100 nM | IC50 ([2]; Homo sapiens, Keratinocyte): 180 nM

O=C(CC1CC(F)(F)C1)NC(c1cnn2cc([C@@H](NC(=O)c3cnnn3CCC(F)(F)F)C3CCC(F)(F)CC3)nc2c1)C1CC1 (single isomer, unassigned) [Example 72, N—((S)-(7-((S*)-Cyclopropyl(2-(3,3-difluorocyclobutyl)acetamido)methyl)imidazo[1,2-b]pyridazin-2-yl)(4,4-difluorocyclohexyl)methyl)-1-(3,3,3-trifluoropropyl)-1H-1,2,3-triazole-5-carboxamide]
IC50 [1]: 78 nM | IC50 [2]: 86 nM

O=C(CC1CC(F)(F)C1)NC(c1cnn2cc([C@@H](NC(=O)c3cnnn3CCC(F)(F)F)C3CCC(F)(F)CC3)nc2c1)C1CC1 (single isomer, unassigned) [Example 73, N—((S)-(7-((R*)-Cyclopropyl(2-(3,3-difluorocyclobutyl)acetamido)methyl)imidazo[1,2-b]pyridazin-2-yl)(4,4-difluorocyclohexyl)methyl)-1-(3,3,3-trifluoropropyl)-1H-1,2,3-triazole-5-carboxamide]
IC50 [1]: 1900 nM | IC50 [2]: ~15000 nM

CC(n1nccc1C(=O)N[C@H](c1cn2ncc([C@H](NC(=O)CCC(F)(F)F)C3CC3)cc2n1)C1CCC(F)(F)CC1)C(F)(F)F (single isomer, unassigned) [Example 115, N—((S)-(7-((R)-Cyclopropyl(4,4,4-trifluorobutanamido)methyl)imidazo[1,2-b]pyridazin-2-yl)(4,4-difluorocyclohexyl)methyl)-1-((R*)-1,1,1-trifluoropropan-2-yl)-1H-pyrazole-5-carboxamide]
IC50 [1]: 190 nM | IC50 ([2]; Homo sapiens, Keratinocyte): 140 nM

CC(n1nccc1C(=O)N[C@H](c1cn2ncc([C@H](NC(=O)CCC(F)(F)F)C3CC3)cc2n1)C1CCC(F)(F)CC1)C(F)(F)F (single isomer, unassigned) [Example 116, N—((S)-(7-((R)-Cyclopropyl(4,4,4-trifluorobutanamido)methyl)imidazo[1,2-b]pyridazin-2-yl)(4,4-difluorocyclohexyl)methyl)-1-((S*)-1,1,1-trifluoropropan-2-yl)-1H-pyrazole-5-carboxamide]
IC50 [1]: 100 nM | IC50 [2]: 210 nM

CC(C)n1nccc1C(=O)N[C@H](c1cn2ncc([C@H](NC(=O)CC(C)C(F)(F)F)C3CC3)cc2n1)C1CCC(F)(F)CC1 (single isomer, unassigned) [Example 121, N—((S)-(7-((R)-Cyclopropyl((R*)-4,4,4-trifluoro-3-methylbutanamido)methyl)imidazo[1,2-b]pyridazin-2-yl)(4,4-difluorocyclohexyl)methyl)-1-isopropyl-1H-pyrazole-5-carboxamide]
IC50 [1]: 88 nM | IC50 ([2]; Homo sapiens, Keratinocyte): 110 nM

CC(C)n1nccc1C(=O)N[C@H](c1cn2ncc([C@H](NC(=O)CC(C)C(F)(F)F)C3CC3)cc2n1)C1CCC(F)(F)CC1 (single isomer, unassigned) [Example 122, N—((S)-(7-((R)-Cyclopropyl((S*)-4,4,4-trifluoro-3-methylbutanamido)methyl)imidazo[1,2-b]pyridazin-2-yl)(4,4-difluorocyclohexyl)methyl)-1-isopropyl-1H-pyrazole-5-carboxamide]
IC50 [1]: 110 nM | IC50 [2]: 220 nM

Cc1nocc1C(=O)N[C@H](c1cn2ncc([C@H](NC(=O)CC(C)C(F)(F)F)C3CC3)cc2n1)C1CCC(F)(F)CC1 (single isomer, unassigned) [Example 123, N—((S)-(7-((R)-Cyclopropyl((R*)-4,4,4-trifluoro-3-methylbutanamido)methyl)imidazo[1,2-b]pyridazin-2-yl)(4,4-difluorocyclohexyl)methyl)-3-methylisoxazole-4-carboxamide]
IC50 [1]: 55 nM | IC50 [2]: 130 nM

Cc1nocc1C(=O)N[C@H](c1cn2ncc([C@H](NC(=O)CC(C)C(F)(F)F)C3CC3)cc2n1)C1CCC(F)(F)CC1 (single isomer, unassigned) [Example 124, N—((S)-(7-((R)-Cyclopropyl((S*)-4,4,4-trifluoro-3-methylbutanamido)methyl)imidazo[1,2-b]pyridazin-2-yl)(4,4-difluorocyclohexyl)methyl)-3-methylisoxazole-4-carboxamide]
IC50 [1]: 110 nM | IC50 [2]: 690 nM

CC(CC(=O)N[C@@H](c1cnn2cc([C@@H](NC(=O)c3conc3C3CC3)C3CCC(F)(F)CC3)nc2c1)C1CC1)C(F)(F)F (single isomer, unassigned) [Example 128, 3-Cyclopropyl-N—((S)-(7-((R)-cyclopropyl((R*)-4,4,4-trifluoro-3-methylbutanamido)methyl)imidazo[1,2-b]pyridazin-2-yl)(4,4-difluorocyclohexyl)methyl)isoxazole-4-carboxamide]
IC50 [1]: 32 nM | IC50 [2]: 96 nM

CC(CC(=O)N[C@@H](c1cnn2cc([C@@H](NC(=O)c3conc3C3CC3)C3CCC(F)(F)CC3)nc2c1)C1CC1)C(F)(F)F (single isomer, unassigned) [Example 129, 3-Cyclopropyl-N—((S)-(7-((R)-cyclopropyl((S*)-4,4,4-trifluoro-3-methylbutanamido)methyl)imidazo[1,2-b]pyridazin-2-yl)(4,4-difluorocyclohexyl)methyl)isoxazole-4-carboxamide]
IC50 [1]: 51 nM | IC50 [2]: 250 nM

CC(C)n1nccc1C(=O)N[C@H](c1cn2ncc(C(NC(=O)CCC(F)F)C3CC3)cc2n1)C1CCC(F)(F)CC1 (single isomer, unassigned) [Example 135, N-((1S)-(7-((R*)-Cyclopropyl(4,4-difluorobutanamido)methyl)imidazo[1,2-b]pyridazin-2-yl)(4,4-difluorocyclohexyl)methyl)-1-isopropyl-1H-pyrazole-5-carboxamide]
IC50 [1]: 110 nM | IC50 ([2]; Homo sapiens, Keratinocyte): 230 nM

CC(C)n1nccc1C(=O)N[C@H](c1cn2ncc(C(NC(=O)CC(C)(C)O)C3CC3)cc2n1)C1CCC(F)(F)CC1 (single isomer, unassigned) [Example 136, N—((S)-(7-((R*)-Cyclopropyl(3-hydroxy-3-methylbutanamido)methyl)imidazo[1,2-b]pyridazin-2-yl)(4,4-difluorocyclohexyl)methyl)-1-isopropyl-1H-pyrazole-5-carboxamide]
IC50 [1]: 400 nM | IC50 [2]: 790 nM
